Measured values: patent publication US9156845B2, “4-(substituted amino)-7H-pyrrolo[2,3-d] pyrimidines as LRRK2 inhibitors” (Pfizer Inc., priority 2012, dated 2015)

Columns and labels:
mutant G2019S LRRK2 = mutant G2019S LRRK2 (Homo sapiens (Human), UniProt Q5S007, G2019S); test: LRRK2 Lantha Screen kinase assay, mutant enzyme; type: biochemical; details: geometric mean of 2-5 determinations unless otherwise indicated (a: >=6 determinations; b: single determination)
[1] = biological target: GST-tagged truncated LRRK2 (Homo sapiens (Human), UniProt Q5S007); test: LRRK2 Lantha Screen kinase assay; type: biochemical; details: geometric mean of 2-5 determinations unless otherwise indicated (a: >=6 determinations; b: single determination); read-out: LRRK2 WT IC50
Sequence of GST-tagged truncated LRRK2 (Q5S007 970-2527): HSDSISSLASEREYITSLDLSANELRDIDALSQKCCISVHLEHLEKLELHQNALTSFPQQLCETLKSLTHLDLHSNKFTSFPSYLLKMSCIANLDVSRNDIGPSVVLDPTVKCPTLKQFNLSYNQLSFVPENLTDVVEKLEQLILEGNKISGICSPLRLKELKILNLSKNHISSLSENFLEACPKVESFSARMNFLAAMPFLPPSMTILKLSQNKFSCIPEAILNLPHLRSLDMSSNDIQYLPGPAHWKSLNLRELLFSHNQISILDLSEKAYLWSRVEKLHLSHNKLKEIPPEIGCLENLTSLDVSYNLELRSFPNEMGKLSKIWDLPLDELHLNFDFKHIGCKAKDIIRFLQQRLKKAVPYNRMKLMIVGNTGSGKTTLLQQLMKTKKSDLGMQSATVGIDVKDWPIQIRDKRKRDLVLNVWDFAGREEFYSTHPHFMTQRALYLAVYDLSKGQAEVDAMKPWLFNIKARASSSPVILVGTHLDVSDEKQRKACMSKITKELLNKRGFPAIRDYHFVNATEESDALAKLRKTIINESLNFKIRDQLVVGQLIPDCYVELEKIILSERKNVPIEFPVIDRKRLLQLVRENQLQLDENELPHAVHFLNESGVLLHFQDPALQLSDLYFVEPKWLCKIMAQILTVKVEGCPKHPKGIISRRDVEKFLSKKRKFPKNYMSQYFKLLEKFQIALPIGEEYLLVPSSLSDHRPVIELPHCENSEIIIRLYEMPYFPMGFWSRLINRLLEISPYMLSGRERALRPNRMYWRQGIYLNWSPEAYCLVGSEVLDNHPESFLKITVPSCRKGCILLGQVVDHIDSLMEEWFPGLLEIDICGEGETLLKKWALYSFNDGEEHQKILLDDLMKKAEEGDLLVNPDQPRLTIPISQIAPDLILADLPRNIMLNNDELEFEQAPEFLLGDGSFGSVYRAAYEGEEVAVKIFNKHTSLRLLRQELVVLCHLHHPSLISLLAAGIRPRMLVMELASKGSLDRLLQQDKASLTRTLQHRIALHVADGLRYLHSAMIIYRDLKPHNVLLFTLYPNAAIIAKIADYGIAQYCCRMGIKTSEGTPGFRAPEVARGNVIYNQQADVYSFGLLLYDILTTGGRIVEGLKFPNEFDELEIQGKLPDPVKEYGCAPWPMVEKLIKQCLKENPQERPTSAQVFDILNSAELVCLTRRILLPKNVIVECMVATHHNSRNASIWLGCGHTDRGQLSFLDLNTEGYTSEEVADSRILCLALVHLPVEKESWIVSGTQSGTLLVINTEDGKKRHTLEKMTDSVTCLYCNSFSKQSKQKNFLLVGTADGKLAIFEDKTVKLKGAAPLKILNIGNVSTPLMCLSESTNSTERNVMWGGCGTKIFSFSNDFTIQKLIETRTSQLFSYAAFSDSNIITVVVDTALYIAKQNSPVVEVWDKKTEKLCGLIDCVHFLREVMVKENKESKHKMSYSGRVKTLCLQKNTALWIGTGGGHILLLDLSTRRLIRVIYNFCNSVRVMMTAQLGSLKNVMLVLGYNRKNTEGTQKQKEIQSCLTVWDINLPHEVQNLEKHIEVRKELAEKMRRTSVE
Protocol: LRRK2 kinase activity was measured using Lantha Screen technology from Invitrogen. GST-tagged truncated LRRK2 from Invitrogen (Cat # PV4874) was incubated with a fluorescein-labeled peptide substrate based upon ezrin/radixin/moesin (ERM), also known as LRRKtide (Invitrogen cat #PR8976A), in the presence of a dose response of compound. Upon completion, the assay was stopped and detected with a terbium labeled anti-phospho-ERM antibody (Invitrogen, cat #PR8975A). […] Aliquots (3.5 μL) of the 100% DMSO dose response were mixed with 46.5 μL water then 1 μL of this mixture was added to the 3 μL substrate mix in the 384-well plate. The kinase reaction was started with 3 μL of a working solution of LRRK2 enzyme at a concentration of 4 μg/mL. […] The reaction was allowed to progress at room temperature for two hours and then stopped with the addition of 7 μL of detection buffer (20 mM Tris pH 7.6, 0.01% NP-40, 0.02% NaN3, 6 mM EDTA with 2 nM terbium labeled anti-phospho-ERM).

Sequence of mutant G2019S LRRK2 (Q5S007 970-2527 G2019S): as the sequence (Q5S007 970-2527) above, with G1050S counted along it

Compound	IC50 (mutant G2019S LRRK2)	IC50 [1]
COc1cccc(F)c1-c1c[nH]c2ncnc(N(C)C)c12 [Example 189, 5-(2-fluoro-6-methoxyphenyl)-N,N-dimethyl-7H-pyrrolo[2,3-d]pyrimidin-4-amine]	0.027 µM	0.04 µM
COc1ccc(F)c(Cl)c1-c1c[nH]c2ncnc(N3CCOCC3)c12 [Example 193, 5-(2-chloro-3-fluoro-6-methoxyphenyl)-4-(morpholin-4-yl)-7H-pyrrolo[2,3-d]pyrimidin]	0.051 µM	0.047 µM
N#Cc1cccc(-c2c(C(F)F)[nH]c3ncnc(N4CCOCC4)c23)c1 [Example 198, 3-[6-(Difluoromethyl)-4-(morpholin-4-yl)-7H-pyrrolo[2,3-d]pyrimidin-5-yl]benzonitrile]	1.08 µM	0.127 µM
c1cc(-c2ncon2)cc(-c2c[nH]c3ncnc(N4CCOCC4)c23)c1 [Example 201, 4-(Morpholin-4-yl)-5-[3-(1,2,4-oxadiazol-3-yl)phenyl]-7H-pyrrolo[2,3-d]pyrimidine]	0.475 µM	0.129 µM
Cc1cc(C2CN(c3ncnc4[nH]cc(-c5cccc(C#N)c5)c34)CCO2)on1 (centres unmarked) [Example 202, 3-{4-[2-(3-Methyl-1,2-oxazol-5-yl)morpholin-4-yl]-7H-pyrrolo[2,3-d]pyrimidin-5-yl}benzonitrile]	0.35 µM	0.0647 µM
N#Cc1cccc(-c2c[nH]c3ncnc(N4CC5COCC5C4)c23)c1 [Example 207, rel-3-{4-[(3aS,6aS)-tetrahydro-1H-furo[3,4-c]pyrrol-5(3H)-yl]-7H-pyrrolo[2,3-d]pyrimidin-5-yl}benzonitrile]	0.687 µM	0.223 µM
N#Cc1cccc(-c2c[nH]c3ncnc(N4CCOC(C#N)C4)c23)c1 (centres unmarked) [Example 209, 4-[5-(3-cyanophenyl)-7H-pyrrolo[2,3-d]pyrimidin-4-yl]morpholine-2-carbonitrile]	0.336 µM	0.0422 µM
CC1(C)CN(c2ncnc3[nH]cc(-c4cccc(C#N)c4)c23)CCO1 [Example 210, 3-[4-(2,2-dimethylmorpholin-4-yl)-7H-pyrrolo[2,3-d]pyrimidin-5-yl]benzonitrile]	0.304 µM	0.0352 µM
c1cnn2c(-c3c[nH]c4ncnc(N5CCOCC5)c34)cnc2c1 [Example 212, 5-(imidazo[1,2-b]pyridazin-3-yl)-4-(morpholin-4-yl)-7H-pyrrolo[2,3-d]pyrimidine]	0.0123 µM	0.00626 µM
N#Cc1cccc(-c2c[nH]c3ncnc(N4CCOC(c5ccno5)C4)c23)c1 (centres unmarked) [Example 219, 3-{4-[2-(1,2-oxazol-5-yl)morpholin-4-yl]-7H-pyrrolo[2,3-d]pyrimidin-5-yl}benzonitrile]	0.234 µM	0.037 µM

Further lines, results first:

IC50 (mutant G2019S LRRK2)	IC50 [1]	Compound
0.034 µM	0.025 µM	COc1cccc(F)c1-c1c[nH]c2ncnc(N3CCOCC3)c12 [Example 190, 5-(2-fluoro-6-methoxyphenyl)-4-(morpholin-4-yl)-7H-pyrrolo[2,3-d]pyrimidine]
0.073 µM	0.023 µM	Cc1cc(-c2c[nH]c3ncnc(N4CCOCC4)c23)sn1 [Example 192, 5-(3-methyl-1,2-thiazol-5-yl)-4-(morpholin-4-yl)-7H-pyrrolo[2,3-d]pyrimidine]
0.351 µM	0.0978 µM	C1=C(c2c[nH]c3ncnc(N4CCOCC4)c23)COCC1 [Example 199, 5-(5,6-Dihydro-2H-pyran-3-yl)-4-(morpholin-4-yl)-7H-pyrrolo[2,3-d]pyrimidine]
0.167 µM	0.0767 µM	C1=C(c2c[nH]c3ncnc(N4CCOCC4)c23)CCCO1 [Example 200, 5-(3,4-Dihydro-2H-pyran-5-yl)-4-(morpholin-4-yl)-7H-pyrrolo[2,3-d]pyrimidine]
0.0901 µM	0.0132 µM	Cc1c(C#N)cccc1-c1c[nH]c2ncnc(N3CCOCC3)c12 [Example 203, 2-methyl-3-[4-(morpholin-4-yl)-7H-pyrrolo[2,3-d]pyrimidin-5-yl]benzonitrile]
0.0327 µM	0.0117 µM	O=c1cc(-c2c[nH]c3ncnc(N4CCOCC4)c23)cc[nH]1 [Example 204, 4-[4-(morpholin-4-yl)-7H-pyrrolo[2,3-d]pyrimidin-5-yl]pyridin-2(1H)-one]
0.0605 µM	0.0158 µM	c1nc(N2CCOCC2)c2c(-c3cnc4sccn34)c[nH]c2n1 [Example 205, 5-(imidazo[2,1-b][1,3]thiazol-5-yl)-4-(morpholin-4-yl)-7H-pyrrolo[2,3-d]pyrimidine]
0.118 µM	0.0219 µM	N#Cc1ccc(-c2c[nH]c3ncnc(N4CCOCC4)c23)s1 [Example 211, 5-[4-(morpholin-4-yl)-7H-pyrrolo[2,3-d]pyrimidin-5-yl]thiophene-2-carbonitrile]
0.0793 µM	0.0306 µM	NC(=O)c1cccc(-c2c[nH]c3ncnc(N4CCOCC4)c23)n1 [Example 215, 6-[4-(morpholin-4-yl)-7H-pyrrolo[2,3-d]pyrimidin-5-yl]pyridine-2-carboxamide]
0.119 µM	0.0356 µM	c1cnc2c(-c3c[nH]c4ncnc(N5CCOCC5)c34)cnn2c1 [Example 216, 4-(morpholin-4-yl)-5-(pyrazolo[1,5-a]pyrimidin-3-yl)-7H-pyrrolo[2,3-d]pyrimidine]
0.135 µM	0.0374 µM	Cc1nc2sccn2c1-c1c[nH]c2ncnc(N3CCOCC3)c12 [Example 218, 5-(6-methylimidazo[2,1-b][1,3]thiazol-5-yl)-4-(morpholin-4-yl)-7H-pyrrolo[2,3-d]pyrimidine]
0.0147 µM	0.00747 µM	Cn1cc(-c2c[nH]c3ncnc(N4CCOCC4)c23)nc1C#N [Example 220, 1-methyl-4-[4-(morpholin-4-yl)-7H-pyrrolo[2,3-d]pyrimidin-5-yl]-1H-imidazole-2-carbonitrile]
